Laboratory results: ChEMBL document CHEMBL1777770, “Design, synthesis, inhibitory activity, and binding mode study of novel DNA methyltransferase 1 inhibitors” (Bioorg Med Chem Lett, 2010)
Calls of active or inactive are those of the source. No cut-off for these calls is given here.

Key:
[1] = biological target: DNA (cytosine-5)-methyltransferase 1 (Homo sapiens) (UniProt P26358); assay: Inhibition of human DNA methyltransferase using S-adenosyl-L-methionine substrate at 10 to 1000 uM measured after 60 mins
[2] = biological target: DNA (cytosine-5)-methyltransferase 1 (Homo sapiens) (UniProt P26358); assay: Inhibition of human DNA methyltransferase using S-adenosyl-L-methionine substrate at 10 uM measured after 60 mins
[3] = biological target: DNA (cytosine-5)-methyltransferase 1 (Homo sapiens) (UniProt P26358); assay: Inhibition of human DNA methyltransferase using S-adenosyl-L-methionine substrate at 1000 uM measured after 60 mins

Sequence of DNA (cytosine-5)-methyltransferase 1 (Homo sapiens) (P26358 whole entry): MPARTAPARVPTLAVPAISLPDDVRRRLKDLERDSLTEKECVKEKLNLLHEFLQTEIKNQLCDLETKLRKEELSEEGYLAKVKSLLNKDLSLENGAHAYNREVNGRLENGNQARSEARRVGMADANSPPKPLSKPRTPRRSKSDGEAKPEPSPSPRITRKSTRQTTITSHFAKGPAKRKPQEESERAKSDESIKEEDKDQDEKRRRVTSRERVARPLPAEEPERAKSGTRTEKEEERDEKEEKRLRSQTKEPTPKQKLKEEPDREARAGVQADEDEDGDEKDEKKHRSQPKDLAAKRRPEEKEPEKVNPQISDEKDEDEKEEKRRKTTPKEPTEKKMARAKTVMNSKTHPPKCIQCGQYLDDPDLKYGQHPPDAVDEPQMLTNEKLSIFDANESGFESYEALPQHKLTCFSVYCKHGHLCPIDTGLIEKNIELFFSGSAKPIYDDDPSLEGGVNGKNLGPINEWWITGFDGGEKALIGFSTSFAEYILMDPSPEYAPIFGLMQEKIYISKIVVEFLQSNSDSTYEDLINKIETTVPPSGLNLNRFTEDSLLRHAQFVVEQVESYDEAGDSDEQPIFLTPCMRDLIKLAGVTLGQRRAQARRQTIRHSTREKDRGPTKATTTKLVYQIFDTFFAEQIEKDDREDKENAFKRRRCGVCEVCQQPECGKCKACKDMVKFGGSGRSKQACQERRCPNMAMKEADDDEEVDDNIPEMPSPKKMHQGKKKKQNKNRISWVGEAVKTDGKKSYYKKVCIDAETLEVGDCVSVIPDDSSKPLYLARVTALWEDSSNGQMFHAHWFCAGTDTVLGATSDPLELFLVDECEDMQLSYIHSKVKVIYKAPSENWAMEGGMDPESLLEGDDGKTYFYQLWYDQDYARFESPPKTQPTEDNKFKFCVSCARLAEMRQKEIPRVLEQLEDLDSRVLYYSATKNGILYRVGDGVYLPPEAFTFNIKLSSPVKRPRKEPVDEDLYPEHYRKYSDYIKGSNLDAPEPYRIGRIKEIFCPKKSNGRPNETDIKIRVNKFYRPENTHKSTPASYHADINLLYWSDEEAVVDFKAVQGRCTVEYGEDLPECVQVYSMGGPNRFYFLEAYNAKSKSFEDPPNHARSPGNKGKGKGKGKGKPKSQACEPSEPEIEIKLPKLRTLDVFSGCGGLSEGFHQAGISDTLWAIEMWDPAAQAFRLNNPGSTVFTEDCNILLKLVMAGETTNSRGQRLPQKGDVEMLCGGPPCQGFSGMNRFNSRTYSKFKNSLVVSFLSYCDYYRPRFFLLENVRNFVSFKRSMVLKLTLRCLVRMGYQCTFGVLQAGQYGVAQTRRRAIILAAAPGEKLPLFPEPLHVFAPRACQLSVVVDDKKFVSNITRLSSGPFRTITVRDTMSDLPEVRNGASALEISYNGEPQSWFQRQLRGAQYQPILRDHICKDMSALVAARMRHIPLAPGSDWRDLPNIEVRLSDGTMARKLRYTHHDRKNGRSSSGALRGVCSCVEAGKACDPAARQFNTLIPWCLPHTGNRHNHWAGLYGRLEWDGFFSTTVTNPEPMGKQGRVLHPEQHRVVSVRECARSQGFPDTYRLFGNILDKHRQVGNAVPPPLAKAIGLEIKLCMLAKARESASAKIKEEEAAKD

O=C(O)[C@H](Cc1c[nH]c2ccccc12)N1C(=O)C=CC1=O
inhibition [1]: Active
inhibition [2]: 60%

CC1=CC(=O)N([C@@H](Cc2c[nH]c3ccccc23)C(=O)O)C1=O
inhibition [1]: Active

O=C(O)[C@H](Cc1c[nH]c2ccccc12)N1C(=O)CCC1=O
inhibition [1]: inactive

O=C(O)[C@H](Cc1c[nH]c2ccccc12)N1C(=O)c2ccccc2C1=O
inhibition [3]: 34%

CC1=C(C)C(=O)N([C@@H](Cc2c[nH]c3ccccc23)C(=O)O)C1=O
inhibition [1]: Active

O=C(O)[C@H](Cc1c[nH]c2ccccc12)N1C(=O)C=C(c2ccccc2)C1=O
inhibition [1]: Active
